PMC7979765, “trans-Translation inhibitors bind to a novel site on the ribosome and clear Neisseria gonorrhoeae in vivo” (Nature Communications, 2021)
≈ marks a conversion by molar mass, not a printed value. Where “and” joins values, the source holds several entries; their conditions need not be identical. Equal entries are not always repeated.

Key:
[1] = target: T1, Serotonin (5-hydroxytryptamine) 5-HT2B (Homo sapiens, UniProt P41595); test: Receptor Profiling 271700; format: binding
T1 construct: Eurofins Discovery Services (contract assay) 271700
T1 sequence (P41595 whole entry): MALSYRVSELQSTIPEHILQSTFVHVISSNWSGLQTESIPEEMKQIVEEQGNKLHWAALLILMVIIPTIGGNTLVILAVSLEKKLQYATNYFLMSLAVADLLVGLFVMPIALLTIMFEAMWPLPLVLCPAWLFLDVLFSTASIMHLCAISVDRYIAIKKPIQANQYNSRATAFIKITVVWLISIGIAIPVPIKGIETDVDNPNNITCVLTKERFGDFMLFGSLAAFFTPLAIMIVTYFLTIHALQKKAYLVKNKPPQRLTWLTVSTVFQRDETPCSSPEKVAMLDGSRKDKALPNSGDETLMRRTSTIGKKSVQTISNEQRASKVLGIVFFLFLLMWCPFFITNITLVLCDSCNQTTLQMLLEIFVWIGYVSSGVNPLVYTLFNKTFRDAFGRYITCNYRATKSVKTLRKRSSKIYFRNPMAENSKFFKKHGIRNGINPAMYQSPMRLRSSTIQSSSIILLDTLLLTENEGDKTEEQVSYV
Experimental: Several in vitro selectivity assays were performed at Eurofins Discovery Services using established methods and controls that behaved as expected (Supplementary Tables 5 and 6). […] For receptor panel profiling, MBX-4132 was evaluated at 10 μM and activity of >50% (agonist or antagonist; note that negative % inhibition indicates agonism) was scored as active.

[2] = in vitro; conditions: mouse, serum
[3] = system: N. gonorrhoeae ATCC 49226; test: Time-kill assay

O=C(Nc1nnc(-c2ccc(F)cc2)o1)N1CCc2ccccc2C1 [MBX-4132]
inhibition at 10 µM [1]: 44%
remaining at 1 h ([2]; Murine serum stability (% remaining after 1 hr)): 109%
remaining at 1 h ([2]; Murine serum stability (% remaining after 1 hr), Replicate 1/2, MBX): 92.6%
remaining at 1 h ([2]; Murine serum stability (% remaining after 1 hr), Reported value, MBX): > 99.8%
remaining at 1 h ([2]; serum stability, % remaining after 1 h, murine serum, 1 h incubation at 37 °C): > 99.8%
AVE CFU/ml ([3]; 1X MIC, 0 h): 9800000 CFU/ml
AVE CFU/ml ([3]; 1X MIC, 1 h): 7.80E+06 CFU/ml and 7800000 CFU/ml
CFU/mL, replicates 1-3 ([3]; 1X MIC, 1 h): 7400000 CFU/mL and 6800000 CFU/mL and 9200000 CFU/mL
AVE CFU/ml ([3]; 1X MIC, 2 h): 3.60E+06 CFU/ml and 3600000 CFU/ml
CFU/mL, replicates 1-3 ([3]; 1X MIC, 2 h): 3800000 CFU/mL and 3600000 CFU/mL and 3400000 CFU/mL
AVE CFU/ml ([3]; 1X MIC, 4 h): 5133333 CFU/ml and 5.13E+06 CFU/ml
CFU/mL, replicates 1-3 ([3]; 1X MIC, 4 h): 5800000 CFU/mL and 5200000 CFU/mL and 4400000 CFU/mL
AVE CFU/ml ([3]; 1X MIC, 6 h): 6200000 CFU/ml and 6.20E+06 CFU/ml
CFU/mL, replicates 1-3 ([3]; 1X MIC, 6 h): 6000000 CFU/mL and 5800000 CFU/mL and 6800000 CFU/mL
AVE CFU/ml ([3]; 1X MIC, 8 h): 1173333 CFU/ml
AVE CFU/ml ([3]; 1X MIC, 8 h, listed as 4132): 1.17E+06 CFU/ml
CFU/mL, replicates 1-3 ([3]; 1X MIC, 8 h, listed as 4132): 1120000 CFU/mL and 1160000 CFU/mL and 1240000 CFU/mL
AVE CFU/ml ([3]; 1X MIC, 24 h): 6866667 CFU/ml and 6.87E+06 CFU/ml
CFU/mL, replicates 1-3 ([3]; 1X MIC, 24 h): 7400000 CFU/mL and 6400000 CFU/mL and 6800000 CFU/mL
AVE CFU/ml ([3]; 4X MIC, 0 h): 9800000 CFU/ml
AVE CFU/ml ([3]; 4X MIC, 1 h): 5.73E+06 CFU/ml and 5733333 CFU/ml
CFU/mL, replicates 1-3 ([3]; 4X MIC, 1 h): 6400000 CFU/mL and 5600000 CFU/mL and 5200000 CFU/mL
AVE CFU/ml ([3]; 4X MIC, 2 h): 3.73E+06 CFU/ml and 3733333 CFU/ml
CFU/mL, replicates 1-3 ([3]; 4X MIC, 2 h): 3600000 CFU/mL and 3400000 CFU/mL and 4200000 CFU/mL
AVE CFU/ml ([3]; 4X MIC, 4 h): 2733333 CFU/ml and 2.73E+06 CFU/ml
CFU/mL, replicates 1-3 ([3]; 4X MIC, 4 h): 2400000 CFU/mL (2×) and 3400000 CFU/mL
AVE CFU/ml ([3]; 4X MIC, 6 h): 2866667 CFU/ml and 2.87E+06 CFU/ml
CFU/mL, replicates 1-3 ([3]; 4X MIC, 6 h): 3000000 CFU/mL (2×) and 2600000 CFU/mL
AVE CFU/ml ([3]; 4X MIC, 8 h): 760000 CFU/ml and 7.60E+05 CFU/ml
CFU/mL, replicates 1-3 ([3]; 4X MIC, 8 h): 780000 CFU/mL and 800000 CFU/mL and 700000 CFU/mL
AVE CFU/ml ([3]; 4X MIC, 24 h): 0 CFU/ml and 0.00E+00 CFU/ml
CFU/mL, replicates 1-3 ([3]; 4X MIC, 24 h): 0 CFU/mL
AVE CFU/ml ([3]; 8X MIC, 0 h): 9800000 CFU/ml
AVE CFU/ml ([3]; 8X MIC, 1 h): 5.13E+06 CFU/ml and 5133333 CFU/ml
CFU/mL, replicates 1-3 ([3]; 8X MIC, 1 h): 5200000 CFU/mL and 4600000 CFU/mL and 5600000 CFU/mL
AVE CFU/ml ([3]; 8X MIC, 2 h): 4.93E+06 CFU/ml and 4933333 CFU/ml
CFU/mL, replicates 1-3 ([3]; 8X MIC, 2 h): 5400000 CFU/mL and 5200000 CFU/mL and 4200000 CFU/mL
AVE CFU/ml ([3]; 8X MIC, 4 h): 3000000 CFU/ml and 3.00E+06 CFU/ml
CFU/mL, replicates 1-3 ([3]; 8X MIC, 4 h): 3000000 CFU/mL and 2800000 CFU/mL and 3200000 CFU/mL
AVE CFU/ml ([3]; 8X MIC, 6 h): 993333 CFU/ml and 9.93E+05 CFU/ml
CFU/mL, replicates 1-3 ([3]; 8X MIC, 6 h): 1060000 CFU/mL and 940000 CFU/mL and 980000 CFU/mL
AVE CFU/ml ([3]; 8X MIC, 8 h): 433333 CFU/ml and 4.33E+05 CFU/ml
CFU/mL, replicates 1-3 ([3]; 8X MIC, 8 h): 400000 CFU/mL and 480000 CFU/mL and 420000 CFU/mL
AVE CFU/ml ([3]; 8X MIC, 24 h): 0 CFU/ml and 0.00E+00 CFU/ml
CFU/mL, replicates 1-3 ([3]; 8X MIC, 24 h): 0 CFU/mL
MIC ([3]; Neisseria gonorrhoeae, ATCC49226): 0.5 µg/mL (≈ 1.48 µM)
bactericidal concentration ([3]; time-kill, N. gonorrhoeae): ≥ 4 X MIC
